Assay results from article PMC6522510 (Nature Communications, 2019).
“And” between values parts separate entries of the source, which are not always exact repeats. Equal entries are not always repeated. Where two headings read alike, the source gives them in different places.

What was measured:
MOLM-13 [1] = assay: Secondary dose-response HTS, Cell Titer Glo; assay type: cell-based, human; details: for EC50: Homo sapiens
MV4-11 [2] = assay: Secondary dose-response HTS, Cell Titer Glo; assay type: cell-based, human; details: for EC50: Homo sapiens
CHRF288-11 [3] = assay: Secondary dose-response HTS, Cell Titer Glo; assay type: cell-based, human; details: Homo sapiens
CMK [4] = assay: Secondary dose-response HTS, Cell Titer Glo; assay type: cell-based, human; details: CMK; for EC50: Homo sapiens
CMS [5] = assay: Secondary dose-response HTS, Cell Titer Glo; assay type: cell-based, human; details: Homo sapiens
M07e [6] = assay: Secondary dose-response HTS, Cell Titer Glo; assay type: cell-based, human; details: Homo sapiens, M-07e
ML2 = assay: Secondary dose-response HTS, Cell Titer Glo; assay type: cell-based, human; details: Homo sapiens
U937 [7] = assay: Secondary dose-response HTS, Cell Titer Glo; assay type: cell-based, human; details: Homo sapiens
MV4-11 [8] = assay: cells; parameters: species or system AML cell lines (8); details: Homo sapiens, MV4-11, 72 h, read-out: MV4-11
CMK [9] = assay: cells; parameters: species or system AML cell lines (8); details: Homo sapiens, 72 h, read-out: CMK
MOLM-13 [10] = assay: cells; parameters: species or system AML cell lines (8); Secondary HTS, 10-point dose-response in triplicate, Cell Titer Glo viability, four-parameter fit EC50; details: Homo sapiens; 72 h cell viability; read-out: MOLM-13
CHRF288-11 [11] = assay: cells; parameters: species or system AML cell lines (8); details: 72 h, read-out: CHRF288-11
CMS [12] = assay: cells; parameters: species or system AML cell lines (8); details: 72 h, read-out: CMS
M07e [13] = assay: cells; parameters: species or system AML cell lines (8); details: M-07e, 72 h, read-out: M07e
U937 [14] = assay: cells; parameters: species or system AML cell lines (8); details: Homo sapiens, U-937, 72 h, read-out: U937
[15] = system: MLLr primary AML blast samples; assay: Ex vivo drug treatment of primary AML blasts on mesenchymal stromal cells; assay type: cell-based; details: Homo sapiens; primary blasts on MSC, 96 h, range over patient samples
[16] = system: AMKL primary AML blast samples; assay: as above; assay type: cell-based; details: Homo sapiens; primary blasts on MSC, 96 h
U937 [17] = assay: cells; parameters: species or system AML cell lines (8); Secondary HTS, 10-point dose-response in triplicate, Cell Titer Glo viability, four-parameter fit EC50; details: Homo sapiens, U-937; 72 h cell viability; read-out: U937
CHRF288-11 [18] = system: CHRF288-11; parameters: species or system AML cell lines (8); Primary HTS, single concentration about 10 uM, Cell Titer Glo viability; log10 luminescence, per cent inhibition relative to cycloheximide control; details: 72 h, 10 µM, inhibitor
CMK [19] = system: CMK; parameters: species or system AML cell lines (8); Primary HTS, single concentration about 10 uM, Cell Titer Glo viability; log10 luminescence, per cent inhibition relative to cycloheximide control; details: 72 h, 10 µM, inhibitor
CMS [20] = system: CMS; parameters: species or system AML cell lines (8); Primary HTS, single concentration about 10 uM, Cell Titer Glo viability; log10 luminescence, per cent inhibition relative to cycloheximide control; details: 72 h, 10 µM, inhibitor
M07e [21] = system: M07e; parameters: species or system AML cell lines (8); Primary HTS, single concentration about 10 uM, Cell Titer Glo viability; log10 luminescence, per cent inhibition relative to cycloheximide control; details: 72 h, 10 µM, inhibitor
ML-2 = system: ML-2; parameters: species or system AML cell lines (8); Primary HTS, single concentration about 10 uM, Cell Titer Glo viability; log10 luminescence, per cent inhibition relative to cycloheximide control
MOLM-13 [22] = system: MOLM-13; parameters: species or system AML cell lines (8); Primary HTS, single concentration about 10 uM, Cell Titer Glo viability; log10 luminescence, per cent inhibition relative to cycloheximide control; details: 72 h, 10 µM, inhibitor
MV4-11 [23] = system: MV4-11; parameters: species or system AML cell lines (8); Primary HTS, single concentration about 10 uM, Cell Titer Glo viability; log10 luminescence, per cent inhibition relative to cycloheximide control; details: 72 h, 10 µM, inhibitor
U937 [24] = system: U937; parameters: species or system AML cell lines (8); Primary HTS, single concentration about 10 uM, Cell Titer Glo viability; log10 luminescence, per cent inhibition relative to cycloheximide control; details: 72 h, 10 µM, inhibitor
[25] = secondary high-throughput screen, MOLM-13, read-out: average effective concentration, MOLM-13
[26] = secondary high-throughput screen, MV4-11
[27] = HTS, secondary high-throughput screen, CHRF288-11, read-out: average effective concentration, CHRF288-11
[28] = secondary high-throughput screen
[29] = HTS, secondary high-throughput screen, CMS, read-out: average effective concentration, CMS
[30] = secondary high-throughput screen, […], read-out: average effective concentration, M07e
[31] = secondary high-throughput screen, ML-2, read-out: average effective concentration, ML-2
[32] = U-937, secondary high-throughput screen, U937, read-out: average effective concentration, U937
[33] = MOLM-13, secondary HTS, 72 h, average of triplicate, read-out: EC50 MOLM-13
[34] = MV4-11, secondary HTS, 72 h, average of triplicate, read-out: EC50 MV4-11
[35] = secondary high-throughput screen, MV4-11, read-out: average effective concentration, MV4-11
[36] = secondary HTS, 72 h, average of triplicate, read-out: EC50 CHRF288-11
[37] = secondary high-throughput screen, read-out: average effective concentration, CMK
[38] = secondary HTS, 72 h, average of triplicate, read-out: EC50 M07e
[39] = secondary high-throughput screen, M07e, read-out: average effective concentration, M07e
[40] = ML-2, secondary HTS, 72 h, average of triplicate, read-out: EC50 ML2
[41] = U-937, secondary HTS, 72 h, average of triplicate, read-out: EC50 U937
[42] = read-out: average effective concentration, CMK
[43] = HTS, read-out: average effective concentration, CMS

Structure (SMILES)	EC50 (MOLM-13 [1]; [25])	EC50 (CHRF288-11 [3]; [27])	EC50 (CMS [5]; [29])	EC50 (ML2; [31])	EC50 (U937 [7]; [32])	EC50 (MV4-11 [8])	EC50 (CMK [9])	EC50 (MV4-11 [2]; [35])	EC50 (CMK [4]; [37])	EC50 (M07e [6]; [39])	also measured
CCC(=O)CCCCC[C@@H]1NC(=O)[C@H]2CCCCN2C(=O)[C@H]([C@@H](C)CC)NC(=O)[C@H](Cc2cn(OC)c3ccccc23)NC1=O [APICIDIN]	130 nM	410 nM	220 nM	180 nM	250 nM	> 10000 nM	> 10000 nM				average effective concentration, MV4-11 (MV4-11 [2]; [26]): Inactive; average effective concentration, CMK (CMK [4]; [28]): Inactive; EC50 (M07e [6]; [30]): 140 nM
CC[C@H](NC(=O)[C@H](C)NC)C(=O)N1C[C@@H](O)C[C@H]1Cc1c(-c2[nH]c3cc(F)ccc3c2C[C@@H]2C[C@H](O)CN2C(=O)[C@H](CC)NC(=O)[C@H](C)NC)[nH]c2cc(F)ccc12 [BIRINAPANT]				1 nM		> 10000 nM	> 10000 nM				EC50 (MOLM-13 [10]): > 10000 nM; EC50 (CHRF288-11 [11]): > 10000 nM; EC50 (CMS [12]): > 10000 nM; EC50 (M07e [13]): > 10000 nM; EC50 (U937 [14]): > 10000 nM
CC(C)C[C@H](NC(=O)[C@H](Cc1ccccc1)NC(=O)c1cnccn1)B(O)O [Bortezomib, reference compound]	1.7 nM			1.2 nM	21 nM			2.3 nM	7.6 nM	1.5 nM	EC50 (MOLM-13 [1]; [33]): 2 nM; EC50 (MV4-11 [2]; [34]): 2 nM; EC50 (CHRF288-11 [3]; [36]): 2 nM; EC50 (CMK [4]; secondary HTS, 72 h, average of triplicate, read-out: EC50 CMK): 10 nM; EC50 (CMS [5]; secondary HTS, 72 h, average of triplicate, read-out: EC50 CMS): 1 nM; EC50 (M07e [6]; [38]): 1 nM; EC50 (ML2; [40]): 1 nM; EC50 (U937 [7]; [41]): 20 nM; IC50 [15]: 1.6 to 5 nM; IC50 [16]: 20 nM
CN1C(=O)[C@@]23C[C@]4([C@]56C[C@@]78SS[C@@](CO)(C(=O)N7[C@H]5Nc5ccccc56)N(C)C8=O)c5ccccc5N[C@@H]4N2C(=O)[C@]1(CO)SS3 [CHAETOCIN]	62 nM	12 nM	10 nM	26 nM			> 10000 nM	29 nM			average effective concentration, CMK (CMK [4]; [28]): Inactive; EC50 (M07e [6]; [30]): 12 nM; EC50 (U937 [17]): 7.7 nM
Nc1nc(Cl)nc2c1ncn2[C@H]1C[C@H](O)[C@@H](CO)O1 [CLADRIBINE]	35 nM	170 nM		190 nM	87 nM			24 nM	30 nM	14 nM	EC50 (CMS [12]): > 10000 nM
NC(=O)c1cccc(N)c1 [Compound 3-AMINOBENZAMIDE]	3200 nM	3000 nM		3200 nM		> 10000 nM	> 10000 nM				EC50 (CMS [12]): > 10000 nM; EC50 (M07e [13]): > 10000 nM; EC50 (U937 [14]): > 10000 nM
CN1C(=O)[C@]23CC4=CC=C[C@H](O)[C@H]4N2C(=O)[C@@]1(CO)SS3 [GLIOTOXIN]		24 nM	26 nM	25 nM	12 nM	> 10000 nM			16 nM		average effective concentration, MOLM-13 (MOLM-13 [1]; secondary high-throughput screen, MOLM-13): Inactive; average effective concentration, MV4-11 (MV4-11 [2]; [26]): Inactive; EC50 (M07e [6]; [30]): 130 nM; CHRF288-11 %inh (CHRF288-11 [18]): 141.2% and 155.7%; CMK %inh (CMK [19]): 129.2% and 125%; CMS %inh (CMS [20]): 108.9% and 102.6%; M07e %inh (M07e [21]): 143.7% and 136.2%; ML-2 %inh (ML-2; 72 h, 10 µM, inhibitor): 66.31%; ML-2 %inh (ML-2; 72 h, 10 µM; inhibitor): 62.11%; MOLM-13 %inh (MOLM-13 [22]): 95.14% and 103.3%; MV4-11 %inh (MV4-11 [23]): 84.27% and 75%; U937 %inh (U937 [24]): 86.1% and 87.37%; EC50 (MOLM-13 [10]): > 10000 nM
C=C1C(=O)O[C@@H]2C[C@@H](C)[C@@H]3C=CC(=O)[C@@]3(C)[C@@H](O)[C@H]12 [HELENALIN]						> 10000 nM					average effective concentration, MOLM-13 (MOLM-13 [1]): Inactive; average effective concentration, MV4-11 (MV4-11 [2]): Inactive; EC50 (CHRF288-11 [3]; HTS, read-out: average effective concentration, CHRF288-11): 170 nM; EC50 (CMK [4]; [42]): 190 nM; EC50 (CMS [5]; [43]): 210 nM; EC50 (M07e [6]; read-out: average effective concentration, M07e): 340 nM; EC50 (ML2; ML-2, read-out: average effective concentration, ML-2): 130 nM; EC50 (U937 [7]; U-937, read-out: average effective concentration, U937): 170 nM; EC50 (MOLM-13 [10]): > 10000 nM
C=CC(=O)N1CCC[C@@H](n2nc(-c3ccc(Oc4ccccc4)cc3)c3c(N)ncnc32)C1 [Ibrutinib, reference compound]	6700 nM		> 10000 nM		10000 nM			10000 nM	> 10000 nM		IC50 [15]: > 20000 nM
Cc1[nH]c2ccccc2c1CCNCc1ccc(/C=C/C(=O)NO)cc1 [Panobinostat, reference compound]				12 nM						4.64 nM	EC50 (MOLM-13 [1]; [33]): 180 nM; EC50 (MV4-11 [2]; [34]): 130 nM; EC50 (CHRF288-11 [3]; [36]): 10 nM; EC50 (CMK [4]; 72 h, read-out: EC50 CMK): 3 nM; EC50 (CMK [4]; [42]): 2.85 nM; EC50 (CMS [5]; HTS, 72 h, read-out: EC50 CMS): 30 nM; EC50 (CMS [5]; [43]): 28 nM; EC50 (M07e [6]; [38]): 5 nM; EC50 (ML2; [40]): 10 nM; EC50 (U937 [7]; [41]): 10 nM; IC50 [15]: 0.9 to 3.3 nM; IC50 [16]: 14 nM
C[C@@H]1C[C@H]2O[C@@H]2/C=C\C=C\C(=O)Cc2c(Cl)c(O)cc(O)c2C(=O)O1 [RADICICOL]	27 nM	92 nM	110 nM	61 nM	15 nM			21 nM	66 nM		EC50 (M07e [13]): > 10000 nM
CC(C)[C@]12O[C@H]1[C@@H]1O[C@]13[C@]1(O[C@H]1C[C@H]1C4=C(CC[C@@]13C)C(=O)OC4)[C@@H]2O [TRIPTOLIDE]	120 nM		70 nM	61 nM	100 nM			230 nM	10 nM	10 nM	EC50 (CHRF288-11 [11]): > 10000 nM
